Measurements taken from patent US20240148747A1, “SMALL MOLECULE ACTIVATORS OF YAP TRANSCRIPTIONAL ACTIVITY FOR REGENERATIVE ORGAN REPAIR” (THE SCRIPPS RESEARCH INSTITUTE, priority 2021, published 2024).
Read-outs that look alike come from different tables or passages of the source.

Experiments:
[1] = system: YAP; experiment: TEAD-LUC activation assay (293A-TEAD-LUC reporter); format: cell-based; conditions: Homo sapiens, read-out: TEAD-LUC activation assay EC50
From the text: More specifically, we used a 293A cell line harboring a stably integrated cassette containing 8 copies of the TEAD binding element upstream of luciferase (8xGTII-LUC). These cells retain responsiveness to contact inhibition-induced decreases in YAP transcriptional output.^6 The TEAD-responsive reporter assay (called 293A-TEAD-LUC throughout) was adapted to 1536-well format and then used to screen a library of ˜738k compounds for YAP-inducing activity.
Additional compounds of the present disclosure were subjected to the assay described above.

[2] = Cytotoxicity in the TEAD-LUC activation assay; conditions: human

Compound | EC50 ([1]; Table 3) | IC50 [2] | EC50 ([1]; Table 4)
O=C(NCCCn1ccnn1)c1n[nH]c2ccccc12 [Compound 97] | > 20 µM | > 20 µM | –
O=C(NCCc1nccs1)c1cc(-c2c(F)cccc2F)on1 [Compound 98] | > 20 µM | > 20 µM | –
O=C(NCCCN1CCOCC1)c1cc(-c2ccccc2F)on1 [Compound 100] | 10 µM | > 20 µM | –
O=C(NCCCn1cccc1)c1n[nH]c2ccccc12 [Compound 101] | > 20 µM | > 20 µM | –
O=C(NCCCc1nccs1)c1ncc(-c2ccccc2)o1 [Compound 102] | > 20 µM | > 20 µM | –
O=C(NCCCc1nccs1)c1noc(-c2ccccc2)n1 [Compound 103] | > 20 µM | > 20 µM | –
O=C(N[C@H]1C[C@@H]1n1cccc1)c1cc(-c2ccccc2)on1 [Compound 104] | > 20 µM | > 20 µM | –
O=C(NCCCc1nccs1)c1cc(C(F)(F)F)ncn1 [Compound 105] | > 20 µM | > 20 µM | –
S=C(NCCn1cccc1)c1cc(-c2ccccc2)on1 [Compound 106, N-(2-(1H-pyrrol-1-yl)ethyl)-5-phenylisoxazole-3-carbothioamide] | > 20 µM | > 20 µM | –
CC(C)(CO)NC(=O)c1cc(-c2ccccc2)on1 [Compound 107] | – | > 20 µM | > 20 µM
Cc1ccc(C2CCCN2C(=O)c2cc(-c3ccc4c(c3)OCO4)on2)cc1 (centres unmarked) [Compound 108] | – | > 20 µM | > 20 µM
COc1ccccc1-c1cc(C(=O)N2CCCC2c2cc(C)no2)no1 (centres unmarked) [Compound 109] | – | > 20 µM | > 20 µM
O=C(NCCCn1cccc1)c1cc(-c2ccccc2)on1 [Compound 110] | – | > 20 µM | 1.02 µM
O=C(NCCCn1cccn1)c1cc(-c2ccccc2)on1 [Compound 111] | – | > 20 µM | 1.6 µM
O=C(NCCCN1CCOCC1)c1cc(-c2ccccc2)on1 [Compound 112] | – | > 20 µM | 6.71 µM
O=C(NCCCn1cncn1)c1cc(-c2ccccc2)on1 [Compound 113] | – | > 20 µM | 3.25 µM
O=C(NCCCn1ccnc1)c1cc(-c2ccccc2)on1 [Compound 114] | – | > 20 µM | 2.97 µM
O=C(c1cc(-c2ccccc2)on1)N1CCC(n2cccc2)CC1 [Compound 115] | – | > 20 µM | > 20 µM
Cc1ccc(-c2cc(C(=O)NCCC(=O)NC(C)C)no2)cc1C [Compound 116] | – | 1 µM | > 20 µM
CCN(CC)CCCNC(=O)c1cc(-c2ccc(Cl)cc2)on1 [Compound 117] | – | > 20 µM | > 20 µM
CCN1CCN(C(CNC(=O)c2cc(-c3ccccc3)on2)c2ccc(OC)cc2)CC1 (centres unmarked) [Compound 118] | – | > 20 µM | > 20 µM
Cc1ccc(-c2cc(C(=O)NCCC(=O)N(C)Cc3ccccc3)no2)cc1 [Compound 119] | – | > 20 µM | > 20 µM
O=C(NCCCN1CCOCC1)c1cc(-c2ccc(Cl)c(Cl)c2)on1 [Compound 120] | – | > 20 µM | > 20 µM
O=C(NCCN1CCOCC1)c1cc(-c2ccccc2)on1 [Compound 122] | – | > 20 µM | 5.48 µM
CC(=O)Nc1cccc(NC(=O)c2cc(-c3ccccc3)on2)c1 [Compound 123] | – | > 20 µM | > 20 µM
CC1CN(C(=O)CCNC(=O)c2cc(-c3ccccc3)on2)CC(C)O1 (centres unmarked) [Compound 124] | – | > 20 µM | 6.71 µM
CCN1C(=O)NC(=O)C12CCN(C(=O)c1cc(-c3ccccc3)on1)CC2 [Compound 125] | – | > 20 µM | > 20 µM
CN(C)CCN(C(=O)c1cc(-c2ccccc2)on1)c1ccccc1 [Compound 126] | – | > 20 µM | > 20 µM

Compound | EC50 ([1]; Table 3) | IC50 [2] | EC50 ([1]; Table 4)
CN1CCN(CCCNC(=O)c2cc(-c3ccccc3)on2)CC1 [Compound 127, N-[3-(4-methylpiperazin-1-yl)propyl]-5-phenyl-1,2-oxazole-3-carboxamide] | – | > 20 µM | 2.68 µM
CN1CCN(CCNC(=O)c2cc(-c3ccccc3)on2)CC1 [Compound 128] | – | > 20 µM | 6.04 µM
COc1ccc(OC)c(-c2cc(C(=O)NCCc3nc(C)cs3)no2)c1 [Compound 130] | – | > 20 µM | > 20 µM
Cc1ccc(NCCCNC(=O)c2cc(-c3ccccc3)on2)nc1 [Compound 131] | – | > 20 µM | 2.88 µM
Cc1ccc(C(=O)NC2CCN(C(=O)c3cc(-c4ccccc4)on3)CC2)o1 [Compound 132] | – | > 20 µM | > 20 µM
NC(=O)CCN(Cc1ccccc1)C(=O)c1cc(-c2ccccc2)on1 [Compound 133] | – | > 20 µM | > 20 µM
O=C(NCCCN1CCOCC1)c1cc(-c2ccc(Cl)cc2)on1 [Compound 134] | – | > 20 µM | > 20 µM
O=C(NCCCN1CCOCC1)c1cc(-c2ccc(F)cc2)on1 [Compound 135] | – | > 20 µM | > 20 µM
O=C(NCCN1CCOCC1)c1cc(-c2ccc(F)cc2)on1 [Compound 136] | – | > 20 µM | 5.52 µM
O=C(c1cc(-c2ccccc2)on1)N1CCC(Nc2ncccn2)CC1 [Compound 137] | – | > 20 µM | > 20 µM
O=C(c1cc(-c2ccccc2)on1)N1CCC(c2nc3ccccc3s2)CC1 [Compound 138] | – | > 20 µM | > 20 µM
CC(=O)N1CCCN(C(=O)c2cc(-c3ccccc3)on2)CC1 [Compound 139] | – | > 20 µM | > 20 µM
O=C(c1cc(-c2ccccc2)on1)N1CCCN(c2cccnn2)CC1 [Compound 140] | – | > 20 µM | > 20 µM
O=C(NCCCN1CCCCCC1=O)c1cc(-c2ccccc2)on1 [Compound 141] | – | > 20 µM | 3.97 µM
Cc1nc(CCCNC(=O)c2cc(-c3ccccc3)on2)sc1C [Compound 142] | – | > 20 µM | 4.71 µM
O=C(Nc1ccccc1-n1cncn1)c1cc(-c2ccccc2)on1 [Compound 143] | – | > 20 µM | > 20 µM
O=C(Nc1cccc(N2CCOC2=O)c1)c1cc(-c2ccccc2)on1 [Compound 144] | – | > 20 µM | 10 µM
CCN1C(=O)CCc2cc(NC(=O)c3n[nH]c4ccccc34)ccc21 [Compound 145] | – | > 20 µM | 2 µM
CN1C(=O)CCc2cc(NC(=O)c3ccncc3)ccc21 [Compound 146] | – | > 20 µM | 15 µM
CN1C(=O)CCc2cc(NC(=O)c3n[nH]c4ccccc34)ccc21 [Compound 147] | – | > 20 µM | 2.5 µM
O=C(NCCc1ccccc1)c1n[nH]c2ccccc12 [Compound 148] | – | > 20 µM | > 20 µM
CCCN1C(=O)CCc2cc(NC(=O)c3ccn(CC)n3)ccc21 [Compound 149] | – | > 20 µM | 3 µM
Cc1cccc(C)c1NC(=O)c1n[nH]c(=O)c2ccccc12 [Compound 150] | – | > 20 µM | 10 µM
O=C(NC1CCCc2ccccc21)c1cc(-c2ccccc2)n[nH]1 (centres unmarked) [Compound 151] | – | > 20 µM | 10 µM
CCN1C(=O)CCc2cc(NC(=O)c3cccc(Br)c3)ccc21 [Compound 152] | – | > 20 µM | 10 µM
CC(=O)c1ccc(NC(=O)c2cc(-c3ccncc3)[nH]n2)cc1 [Compound 153] | – | > 20 µM | > 20 µM
N#Cc1cccc(NC(=O)c2cc(-c3ccncc3)[nH]n2)c1 [Compound 154] | – | > 20 µM | 2 µM
